Data on 4 molecules can be found in patent US20230265151A1, “GIP/GLP1 CO-AGONIST COMPOUNDS” (priority 2020, published 2023).

Holding throughout (format): cell-based
One test deals with T1, hGIPR (Homo sapiens, UniProt P48546).
T1 construct: expressed in transfected cells
T1 sequence (P48546 22-466): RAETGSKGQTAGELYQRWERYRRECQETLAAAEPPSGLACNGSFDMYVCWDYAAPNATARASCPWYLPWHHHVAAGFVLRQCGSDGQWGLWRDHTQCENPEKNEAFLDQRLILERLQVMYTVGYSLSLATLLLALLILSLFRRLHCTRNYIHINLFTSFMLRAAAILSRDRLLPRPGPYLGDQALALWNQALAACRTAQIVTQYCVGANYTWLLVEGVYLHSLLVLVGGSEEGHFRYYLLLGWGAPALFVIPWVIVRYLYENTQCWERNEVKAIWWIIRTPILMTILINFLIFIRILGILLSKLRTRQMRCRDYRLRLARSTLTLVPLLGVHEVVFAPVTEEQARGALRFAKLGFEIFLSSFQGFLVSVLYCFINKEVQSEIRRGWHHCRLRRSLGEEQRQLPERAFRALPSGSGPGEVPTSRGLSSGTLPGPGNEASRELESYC
Nature of the test: Functional cAMP formation (HTRF) in HEK-293 clonal cells expressing hGIPR, 0.1% bovine casein, without or with 1.0% human serum albumin. The settings on record: for Emax: read-out: hGIPR Emax, % ± SEM; for EC50: read-out: hGIPR EC50, nM (SEM, n). Put shortly:
(§1)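 Cells were stimulated with peptide for 30 min at 37° C, then intracellular cAMP was measured by competitive HTRF (665/620 nm ratio) and converted to nM using a cAMP standard curve. Relative EC50 and Emax came from four-parameter logistic fits of percent maximal response against peptide concentration.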
(In general: Changes in cAMP serve as a functional read-out for many G protein-coupled receptors.)

A further test concerns the target T2, hGCGR (Homo sapiens, UniProt P47871).
T2 construct: expressed in transfected cells
Nature of the test: Functional cAMP formation (HTRF) in HEK-293 clonal cells expressing hGCGR, 0.1% bovine casein, without or with 1.0% human serum albumin. The settings on record: read-out: hGCGR EC50, nM (SEM, n). Put shortly: as §1

In a further test the target is hGLP-1R (Homo sapiens, UniProt P43220). Briefly: Functional cAMP formation (HTRF) in HEK-293 clonal cells expressing hGLP-1R, 0.1% bovine casein, without or with 1.0% human serum albumin. The settings on record: 37° C.; for Emax: read-out: hGLP-1R Emax, % ± SEM; for EC50: geometric mean, read-out: hGLP-1R EC50, nM (SEM, n). Details: expressed in transfected cells. Put shortly:
as §1

Setting [1] is: cAMP, incubated at 37° C., 0.1% bovine casein (no human serum albumin), geometric mean.
The mark [2] stands for this setting: HEK293, cAMP, 37° C., 0.1% bovine casein and 1.0% human serum albumin, percent of maximal response to GIP(1-42)NH2.
Where [3] appears, read: cAMP, 37° C., 0.1% bovine casein (no human serum albumin), geometric mean.
The mark [4] stands for this setting: cAMP, 37° C., 0.1% bovine casein and 1.0% human serum albumin, geometric mean (SEM, n).
The mark [5] stands for this setting: cAMP, 0.1% bovine casein (no human serum albumin).
Setting [6] is: 0.1% bovine casein and 1.0% human serum albumin, 37° C., geometric mean.

Structures are written as SMILES. Where two headings read alike, the source gives them in different places. *1 amine or outer side, *2 acyl side, *3 side chain or, on linkers, in order; H or OH if unused. Where a SMILES comes first, the peptide text is derived from it. Side-chain parts run from the residue outwards. [ ]: non-standard residue; d: D form. The star is where a group is joined. αMePhe(2-F) = C[C@](N)(Cc1ccccc1F)C(=O)O; γGlu = O=C(O)[C@H](CCC(=O)[*:2])N[*:1]; αMeY = C[C@](N)(Cc1ccc(O)cc1)C(=O)O; αMeF = C[C@](N)(Cc1ccccc1)C(=O)O; αMeL = CC(C)C[C@](C)(N)C(=O)O; Lauroyl = CCCCCCCCCCCC(=O)*; Orn = NCCC[C@H](N)C(=O)O; AEEA = NCCOCCOCC(=O)O; Aib = CC(C)(N)C(=O)O

Chain of hGLP-1R (P43220 24-463): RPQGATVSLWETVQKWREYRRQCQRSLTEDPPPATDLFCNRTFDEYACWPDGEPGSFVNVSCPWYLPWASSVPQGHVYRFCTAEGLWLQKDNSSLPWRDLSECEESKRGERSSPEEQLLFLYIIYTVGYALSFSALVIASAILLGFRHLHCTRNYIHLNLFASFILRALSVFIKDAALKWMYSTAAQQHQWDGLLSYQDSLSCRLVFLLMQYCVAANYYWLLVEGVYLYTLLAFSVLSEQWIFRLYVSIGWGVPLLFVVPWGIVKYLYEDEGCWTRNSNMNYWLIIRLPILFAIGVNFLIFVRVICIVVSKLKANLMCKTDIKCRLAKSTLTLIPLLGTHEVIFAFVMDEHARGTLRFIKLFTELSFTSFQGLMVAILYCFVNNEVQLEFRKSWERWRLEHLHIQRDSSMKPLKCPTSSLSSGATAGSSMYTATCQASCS
T2 sequence (P47871 26-477): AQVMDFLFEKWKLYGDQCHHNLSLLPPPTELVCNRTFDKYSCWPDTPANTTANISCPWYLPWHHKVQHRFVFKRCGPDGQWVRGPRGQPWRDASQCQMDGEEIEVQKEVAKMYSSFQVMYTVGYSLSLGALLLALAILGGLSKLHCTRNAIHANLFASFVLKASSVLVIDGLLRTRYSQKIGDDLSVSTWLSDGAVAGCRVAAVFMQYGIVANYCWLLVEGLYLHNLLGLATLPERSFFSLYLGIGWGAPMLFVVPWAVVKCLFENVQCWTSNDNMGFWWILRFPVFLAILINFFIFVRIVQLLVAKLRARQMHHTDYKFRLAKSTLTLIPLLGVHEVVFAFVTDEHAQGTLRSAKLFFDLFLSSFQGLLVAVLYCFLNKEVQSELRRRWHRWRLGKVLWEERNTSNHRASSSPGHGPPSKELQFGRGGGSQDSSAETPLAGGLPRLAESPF

Take `CC[C@H](C)[C@H](NC(=O)[C@H](CC(C)C)NC(=O)[C@](C)(Cc1ccc(O)cc1)NC(=O)[C@@H](CCC(=O)O)NC(=O)[C@@H](NC(=O)[C@H](Cc1ccccc1)NC(=O)[C@H](CCC(=O)O)NC(=O)C(C)(C)NC(=O)[C@H](CCC(N)=O)NC(=O)[C@H](C)NC(=O)[C@H](CCCCNC(=O)COCCOCCNC(=O)COCCOCCNC(=O)CC[C@H](NC(=O)CCCc1ccc(C(C)(C)C)cc1)C(=O)O)NC(=O)[C@H](CCCN)NC(=O)[C@H](CC(=O)O)NC(=O)[C@H](CC(C)C)NC(=O)[C@](C)(CC(C)C)NC(=O)[C@@H](NC(=O)[C@H](CO)NC(=O)[C@H](CCCCNC(=O)COCCOCCNC(=O)COCCOCCNC(=O)CC[C@H](NC(=O)CCCc1ccc(C(C)(C)C)cc1)C(=O)O)NC(=O)[C@H](CC(=O)O)NC(=O)[C@H](CO)NC(=O)[C@@H](NC(=O)[C@](C)(Cc1ccccc1F)NC(=O)[C@@H](NC(=O)CNC(=O)[C@H](CCC(=O)O)NC(=O)C(C)(C)NC(=O)[C@@H](N)Cc1ccc(O)cc1)[C@@H](C)O)[C@@H](C)O)[C@@H](C)CC)[C@@H](C)CC)C(=O)N[C@@H](CCC(=O)O)C(=O)NCC(=O)NCC(=O)N1CCC[C@H]1C(=O)N[C@@H](CO)C(=O)N[C@@H](CO)C(=O)NCC(=O)N[C@@H](C)C(=O)N1CCC[C@H]1C(=O)N1CCC[C@H]1C(=O)N1CCC[C@H]1C(=O)N[C@@H](CO)C(N)=O` [Example 130]: the Emax on hGIPR (HEK293, percent of maximal response to GIP(1-42)NH2, 37° C., 0.1% bovine casein, arithmetic mean) amounted to 94.7 ± 4.51%; on hGLP-1R (HEK293, percent of maximal response to GLP-1(7-36)NH2, 0.1% bovine casein, arithmetic mean), 100 ± 1.69%. Also, the EC50 was 0.0266 nM at hGIPR (setting [1]) and above 9950 nM at hGCGR (setting [1]).
Consider `CC[C@H](C)[C@H](NC(=O)[C@H](CC(C)C)NC(=O)[C@](C)(Cc1ccc(O)cc1)NC(=O)[C@@H](CCC(=O)O)NC(=O)[C@@H](NC(=O)[C@H](Cc1ccccc1)NC(=O)[C@H](CCC(=O)O)NC(=O)C(C)(C)NC(=O)[C@H](CCC(N)=O)NC(=O)[C@H](C)NC(=O)[C@H](CCCCNC(=O)COCCOCCNC(=O)COCCOCCNC(=O)CC[C@H](NC(=O)CCCCCCCCCCCCC(=O)O)C(=O)O)NC(=O)[C@H](CCCN)NC(=O)[C@H](CC(=O)O)NC(=O)[C@H](CC(C)C)NC(=O)[C@](C)(CC(C)C)NC(=O)[C@@H](NC(=O)C(C)(C)NC(=O)[C@H](Cc1ccncc1)NC(=O)[C@H](CC(=O)O)NC(=O)[C@H](CO)NC(=O)[C@@H](NC(=O)[C@](C)(Cc1ccccc1F)NC(=O)[C@@H](NC(=O)CNC(=O)[C@H](CCC(=O)O)NC(=O)C(C)(C)NC(=O)[C@@H](N)Cc1ccc(O)cc1)[C@@H](C)O)[C@@H](C)O)[C@@H](C)CC)[C@@H](C)CC)C(=O)N[C@@H](CCCCNC(=O)COCCOCCNC(=O)COCCOCCNC(=O)CC[C@H](NC(=O)CCCCCCCCCCCCC(=O)O)C(=O)O)C(=O)NCC(=O)NCC(=O)N1CCC[C@H]1C(=O)N[C@@H](CO)C(=O)N[C@@H](CO)C(=O)NCC(=O)N[C@@H](C)C(=O)N1CCC[C@H]1C(=O)N1CCC[C@H]1C(=O)N1CCC[C@H]1C(=O)N[C@@H](CO)C(N)=O` [Example 358], for which, at hGIPR (setting [2]), the Emax stood at 86.2%. In addition, the EC50 was 0.0137 nM on hGIPR (setting [3]); 2.06 nM at hGIPR (setting [4]); above 10100 nM on hGCGR (setting [3]); above 9950 nM at hGCGR (setting [4]); 0.773 nM at hGLP-1R (setting [5]).
Take `CCCCCCCCCCCC(=O)N[C@@H](CCC(=O)NCCOCCOCC(=O)NCCOCCOCC(=O)NCCCC[C@H](NC(=O)[C@H](CCCN)NC(=O)[C@H](CC(=O)O)NC(=O)[C@H](CC(C)C)NC(=O)[C@](C)(CC(C)C)NC(=O)[C@@H](NC(=O)[C@H](CO)NC(=O)[C@H](CCCCNC(=O)COCCOCCNC(=O)COCCOCCNC(=O)CC[C@H](NC(=O)CCCCCCCCCCC)C(=O)O)NC(=O)[C@H](CC(=O)O)NC(=O)[C@H](CO)NC(=O)[C@@H](NC(=O)[C@](C)(Cc1ccccc1F)NC(=O)[C@@H](NC(=O)CNC(=O)[C@H](CCC(=O)O)NC(=O)C(C)(C)NC(=O)[C@@H](N)Cc1ccc(O)cc1)[C@@H](C)O)[C@@H](C)O)[C@@H](C)CC)C(=O)N[C@@H](C)C(=O)N[C@@H](CCC(N)=O)C(=O)NC(C)(C)C(=O)N[C@@H](CCC(=O)O)C(=O)N[C@@](C)(Cc1ccccc1)C(=O)N[C@H](C(=O)N[C@H](CCC(=O)O)C(=O)N[C@@](C)(Cc1ccc(O)cc1)C(=O)N[C@@H](CC(C)C)C(=O)N[C@H](C(=O)N[C@@H](CCC(=O)O)C(=O)NCC(=O)NCC(N)=O)[C@@H](C)CC)[C@@H](C)CC)C(=O)O` [Example 297] (H-Y[Aib]EGT[αMePhe(2-F)]TSDK([AEEA-AEEA-γGlu-Lauroyl])SI[αMeL]LD[Orn]K([AEEA-AEEA-γGlu-Lauroyl])AQ[Aib]E[αMeF]I[dE][αMeY]LIEGG-NH2): the concentration for a half-maximal effect (EC50) at hGIPR (setting [6]) is 1.54 nM; at hGIPR (setting [3]), 0.0112 nM; at hGCGR (setting [6]) it was above 9950 nM; at hGCGR (setting [3]), above 9950 nM; at hGLP-1R (0.1% bovine casein and 1.0% human serum albumin), 19.1 nM; on hGLP-1R (setting [5]) it was 0.125 nM.
With `CC[C@H](C)[C@H](NC(=O)[C@H](CC(C)C)NC(=O)[C@](C)(Cc1ccc(O)cc1)NC(=O)[C@@H](CCC(=O)O)NC(=O)[C@@H](NC(=O)[C@H](Cc1ccccc1)NC(=O)[C@H](CCC(=O)O)NC(=O)C(C)(C)NC(=O)[C@H](CCC(N)=O)NC(=O)[C@H](C)NC(=O)[C@H](CCCCNC(=O)COCCOCCNC(=O)COCCOCCNC(=O)CC[C@H](NC(=O)CCCCCCCCCCCCC(=O)O)C(=O)O)NC(=O)[C@H](CCCN)NC(=O)[C@H](CC(=O)O)NC(=O)[C@H](CC(C)C)NC(=O)[C@](C)(CC(C)C)NC(=O)[C@@H](NC(=O)C(C)(C)NC(=O)[C@H](Cc1ccncc1)NC(=O)[C@H](CC(=O)O)NC(=O)[C@H](CO)NC(=O)[C@@H](NC(=O)[C@](C)(Cc1ccccc1F)NC(=O)[C@@H](NC(=O)CNC(=O)[C@H](CCC(=O)O)NC(=O)C(C)(C)NC(=O)[C@@H](N)Cc1ccc(O)cc1)[C@@H](C)O)[C@@H](C)O)[C@@H](C)CC)[C@@H](C)CC)C(=O)N[C@@H](CCC(=O)O)C(=O)NCC(=O)NCC(=O)N1CCC[C@H]1C(=O)N[C@@H](CO)C(=O)N[C@@H](CO)C(=O)NCC(=O)N[C@@H](C)C(=O)N1CCC[C@H]1C(=O)N1CCC[C@H]1C(=O)N1CCC[C@H]1C(=O)N[C@@H](CO)C(=O)N[C@@H](CCCCNC(=O)COCCOCCNC(=O)COCCOCCNC(=O)CC[C@H](NC(=O)CCCCCCCCCCCCC(=O)O)C(=O)O)C(N)=O` [Example 359], the maximal response (Emax) at hGIPR (setting [2]) came to 81%; on hGLP-1R (HEK293, cAMP, 0.1% bovine casein and 1.0% human serum albumin, percent of maximal response to GLP-1(7-36)NH2), 95.1%. Besides, the EC50 at hGIPR (setting [3]) was 0.0261 nM; on hGCGR (setting [3]), above 10100 nM; at hGCGR (setting [4]) it was above 9950 nM; at hGLP-1R (setting [5]), 1.18 nM.

The term Emax denotes the maximal effect, on the per cent scale that the assay sets. By EC50 is commonly meant the concentration giving half of the maximal effect.
